The values below come from ChEMBL document CHEMBL1145767, “Conformational restriction of methionyl tRNA synthetase inhibitors leading to analogues with potent inhibition and excellent gram-positive antibacterial activity” (Bioorg Med Chem Lett, 2003).

Values after ≈ are worked out from the molar mass of the structure shown. A value given as a limit tells only on which side of the number the result lay.

What all share (type): functional
Assay [1] has as its system Staphylococcus aureus. Kind of assay: Antibacterial activity against Staphylococcus aureus Oxford.
For assay [2], the system named is Staphylococcus aureus. Briefly: Inhibitory activity against Staphylococcus aureus MRS.
Assay [3] relates to Enterococcus faecalis. Kind of assay: Antibacterial activity against Enterococcus faecalis 1.
Assay [4] has as its system Staphylococcus aureus. Kind of assay: Antibacterial activity against Staphylococcus aureus.
Assay [5] deals with Staphylococcus epidermidis. Kind of assay: Antibacterial activity against Staphylococcus epidermidis.
In a further assay the test system is Enterococcus faecium. Briefly: Antibacterial activity against Enterococcus faecium.
Assay [6] deals with Enterococcus faecalis. Briefly: Antibacterial activity against Enterococcus faecalis.

The term MIC denotes the smallest concentration in the dilution series that meets the test's criterion for growth inhibition. By IC50 is commonly meant the concentration that inhibits the measured activity by half. As usually defined, the MIC90 is an inhibitory concentration at the 90% level, which refers to growth in some studies and to a panel of isolates in others. Higher therefore signals lower susceptibility.

Turning to `Oc1cc(NC[C@H]2CCC[C@H]2NCc2ccc(Cl)c(Cl)c2)nc2ccccc12`, the MIC in the assay on Staphylococcus aureus [1] amounted to 16 µg/mL (≈ 38.4 µM); in the assay on Enterococcus faecalis [3], 8 µg/mL (≈ 19.2 µM). Besides, the 50% inhibitory concentration (IC50) in the assay with Staphylococcus aureus [2] is 0.018 µM.
In the same order, the values of `Oc1cc(NC[C@@H]2CCC[C@H]2NCc2ccc(Cl)c(Cl)c2)nc2ccccc12` are greater than 64 µg/mL, 32 µg/mL (≈ 76.9 µM) and 0.7 µM.
For `Oc1cc(N[C@H]2CC[C@H](NCc3ccc(Cl)c(Cl)c3)CC2)nc2ccccc12` the same measures were greater than 64 µg/mL, greater than 64 µg/mL and 2.3 µM.
For `Oc1cc(NC[C@H]2CCC[C@@H]2NCc2ccc(Cl)c(Cl)c2)nc2ccccc12`, the MIC came out at 1 µg/mL (≈ 2.4 µM) with Staphylococcus aureus [1] and 0.125 µg/mL (≈ 0.3 µM) in the assay on Enterococcus faecalis [3]. Also, the IC50 in the assay with Staphylococcus aureus [2] is 0.009 µM.
In the same order, the values of `Oc1cc(NCc2ccccc2NCc2ccc(Cl)c(Cl)c2)nc2ccccc12` are greater than 64 µg/mL, greater than 64 µg/mL and 0.056 µM.
For `Oc1cc(NC[C@H]2OCC[C@@H]2NCc2ccc(Cl)c(Cl)c2)nc2ccccc12` the same measures were 64 µg/mL (≈ 153 µM), 4 µg/mL (≈ 9.56 µM) and 0.078 µM.
Turning to `Oc1cc(NC[C@@H]2CCC[C@@H]2NCc2ccc(Cl)c(Cl)c2)nc2ccccc12`, the minimal inhibitory concentration (MIC) is 8 µg/mL (≈ 19.2 µM) against Staphylococcus aureus [1] and 1 µg/mL (≈ 2.4 µM) with Enterococcus faecalis [3]. In the assay on Staphylococcus aureus [2], this molecule returned a concentration for half-maximal inhibition (IC50) of 0.1 µM.
With `CCOc1c(Br)cc(Br)cc1CN[C@H]1CCC[C@@H]1CNc1cc(O)c2ccccc2n1`, the minimum inhibitory concentration (MIC) in the assay on Staphylococcus aureus [1] and against Enterococcus faecalis [3] was less than 0.06 µg/mL each time. The same molecule yielded an IC50 in the assay with Staphylococcus aureus [2] of 0.0076 µM. The MIC90 against Staphylococcus aureus [4] was 0.06 µg/mL (≈ 0.109 µM); in assay [5], 0.125 µg/mL (≈ 0.228 µM); in the assay on Enterococcus faecium, less than 0.016 µg/mL; in the assay on Enterococcus faecalis [6], 0.03 µg/mL (≈ 0.0546 µM).
For `Oc1cc(NC[C@H]2CCC[C@@H]2NCc2cc(Br)cc(Br)c2)nc2ccccc12`, the minimal inhibitory concentration (MIC) in the assay on Staphylococcus aureus [1] and in the assay on Enterococcus faecalis [3] was less than 0.06 µg/mL throughout. The molecule further came in with an IC50 in the assay with Staphylococcus aureus [2] of 0.01 µM.
For `Oc1cc(N[C@H]2CCC[C@H](NCc3ccc(Cl)c(Cl)c3)C2)nc2ccccc12` (racemic), the minimum inhibitory concentration (MIC) in the assay with Staphylococcus aureus [1] and with Enterococcus faecalis [3] was greater than 64 µg/mL in each case. In the assay with Staphylococcus aureus [2], inhibition was half-maximal at 0.043 µM (IC50).
As to `Oc1cc(NC[C@H]2CC[C@@H]2NCc2ccc(Cl)c(Cl)c2)nc2ccccc12` (racemic), the MIC worked out at 2 µg/mL (≈ 4.97 µM) in the assay with Staphylococcus aureus [1] and 0.25 µg/mL (≈ 0.621 µM) with Enterococcus faecalis [3]. Further, the IC50 in the assay with Staphylococcus aureus [2] is 0.012 µM.
For `Oc1cc(NC[C@H]2CC[C@H]2NCc2ccc(Cl)c(Cl)c2)nc2ccccc12` (racemic) the same measures were greater than 64 µg/mL, 16 µg/mL (≈ 39.8 µM) and 0.11 µM.
In the same order, the values of `Oc1cc(N[C@@H]2CCC[C@H](NCc3ccc(Cl)c(Cl)c3)C2)nc2ccccc12` (racemic) are 64 µg/mL (≈ 154 µM), 32 µg/mL (≈ 76.9 µM) and 0.15 µM.
As to `Oc1cc(NCC2=CCCC2NCc2ccc(Cl)c(Cl)c2)nc2ccccc12` (racemic), the minimum inhibitory concentration (MIC) against Staphylococcus aureus [1] and with Enterococcus faecalis [3] was greater than 64 µg/mL in each case. In the assay with Staphylococcus aureus [2], this molecule registered a half-maximal inhibitory concentration (IC50) of 0.01 µM.
